Molecules are shown by their SMILES.

In test [1] the test system is purified 2-oxoglutarate/malate translocator protein. The following applies: cited from earlier work; for transport activity, percentage of activity measured with malate-preloaded liposomes: liposomes preloaded with the indicated dicarboxylate.
In test [2] the target is T1, 2-oxoglutarate/malate translocator, envelope membrane of spinach chloroplasts (Spinacia oleracea, UniProt Q41364).
T1 construct: it is cleaved during the import process by a specific protease; the mature protein (m) is formed; from tissue; host or cells: spinach chloroplast envelope membranes
T1 sequence (Q41364 94-569): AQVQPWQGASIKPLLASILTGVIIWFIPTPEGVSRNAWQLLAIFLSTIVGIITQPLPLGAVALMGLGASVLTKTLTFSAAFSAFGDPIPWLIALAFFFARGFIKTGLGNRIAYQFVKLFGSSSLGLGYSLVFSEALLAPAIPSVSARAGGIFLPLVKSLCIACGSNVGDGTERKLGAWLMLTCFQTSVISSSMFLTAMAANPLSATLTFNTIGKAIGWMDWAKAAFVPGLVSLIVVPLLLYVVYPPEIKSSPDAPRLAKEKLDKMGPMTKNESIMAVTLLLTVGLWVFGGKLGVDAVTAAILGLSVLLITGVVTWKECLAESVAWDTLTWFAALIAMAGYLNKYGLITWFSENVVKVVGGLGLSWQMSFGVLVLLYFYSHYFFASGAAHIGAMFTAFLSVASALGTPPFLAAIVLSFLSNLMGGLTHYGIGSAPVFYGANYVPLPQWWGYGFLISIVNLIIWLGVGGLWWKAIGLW
The experiment in a line: Reconstituted malate transport activity, envelope membrane proteins of spinach chloroplasts in liposomes. The class given is biochemical. The following applies: for transport activity, percentage of activity measured with malate-preloaded liposomes: envelope membrane of spinach chloroplasts, liposomes preloaded with the indicated dicarboxylate, standard deviation in brackets. Here is the method: (§1) Yeast cells transformed with pEVP11-211 plasmid (see FIG. 2A, SP-DC3 cells) were grown in minimum essential medium up to an optical density of 1.0 at 600 nm and harvested by centrifugation at 3,000×g for 5 minutes. The cells were disrupted by vigorously shaking the mixture with 1/2 vol. (based on the cells) glass beads and glass beads and cell debris were separated by centrifugation (600 g for 1 minute). The supernatant was adjusted to a concentration of 0.5% (weight/volume) Triton X-100, an equal volume of liposomes was added to the mixture and the resulting proteoliposomes were immediately frozen in liquid nitrogen. The liposomes were previously prepared by sonification of soy bean phospholipid (20 mg/ml for 10 minutes at 4° C. in the presence of 200 mM tricine NaOH (pH 7.6), 40 mM malate and 60 mM potassium gluconate. After thawing of the proteoliposomes and sonification of the suspension with 10 pulses a 1 s the proteoliposomes were separated from the surrounding medium by size exclusion chromatography on Sephadex G-25 which had been equilibrated with 10 mM tricine NaOH (pH 7.6), 100 mM sodium gluconate and 50 mM potassium gluconate. The eluted proteoliposomes were used for measuring malate transport activity. The measurement was carried out according to the "inhibitor stop" method described by Menzlaff and Flugge (1993, Biochim. Biophys. Acta 1147:13-18).
Whole yeast protein, envelope membrane proteins and the purified
2oxyoglutarate/malate translocator were reconstituted in liposomes which
were preloaded with the indicated dicarboxylates. The transport activitie
were measured as described by Menzlaff and Flugge (Biochim. Biophys. Acta
1993, 1147: 13-18) and are indicated in the percentage of activity
measured with malatepreloaded liposomes. The standard deviations are
indicated in brackets. The 100% transport activities (nMol/mg # protein
per minute) were 0.8 (recombinant protein), 21.4 (envelope membranes) and
263 (purified translocator protein).

Test [3] has as its target T2, recombinant 2-oxoglutarate/malate translocator (transformed SP-DC3 cells) (Spinacia oleracea, UniProt Q41364).
T2 construct: made in house; host or cells: Schizosaccharomyces pombe (SP-DC3 cells, plasmid pEVP11-211)
T2 sequence (Q41364 94-569): T1 sequence (Q41364 94-569)
The experiment in a line: Reconstituted malate transport activity (inhibitor stop method), recombinant protein from transformed SP-DC3 yeast cells in liposomes. In kind it is biochemical, spinach (expressed in Schizosaccharomyces pombe). The following applies: for transport activity, percentage of activity measured with malate-preloaded liposomes: recombinant protein (transformed SP-DC3 cells), liposomes preloaded with the indicated dicarboxylate, standard deviation in brackets. The protocol:
as §1
The malate transport activity in the pEVP11-211 transformants was compared with the malate transport activity of transformants that were merely transformed with the vector pEVP11 without the 211 insert.

Test [4] has as its system protein import into intact spinach chloroplasts. The experiment in a line: Import of in vitro translated translocator precursor protein into intact spinach chloroplasts (SDS-PAGE, fluorography). The following applies: light conditions, 10 μM CCCP (lane 8, FIG. 3). Here is the method: FIG. 3: Targeting of the 2-oxoglutarate/malate translocator precursor protein to the chloroplasts and energy-dependent insertion of the mature protein in the inner envelope membrane
SDS polyacrylamide gel electrophoresis was carried out as described in Example 6:
Lane 8: plus decoupling agent (10 μM CCCP) Lane 9: plus 2 mM ATP; protease-pretreated chloro-plasts (30 μg/ml)
The in vitro transcription of plasmid pBSC-211 which was linearized with SmaI was carried out using T3 RNA polymerase according to the instructions of the manufacturer (Pharmacia). Subsequent in vitro translation was carried out in the reticulocyte lysate (Boehringer-Mannheim). The post-ribosomal supernatant was used for protein transports in intact spinach chloroplasts. The experiment was carried out in the dark as well as in the light; the preparation contained import buffer (Flugge et al., 1989, EMBO J. 8:39-46), intact spinach chloroplasts (corresponding to 200 […]) and various additives indicated in the legend to FIG. 3 (entire volume: […]). After 15 minutes at 25° C. the chloroplasts were washed and the envelope membranes […] (Flugge et al., 1989, EMBO J. 8:39-46) […]. They were analyzed in a SDS polyacrylamide gel electrophoresis (Laemmli, 1970, Nature 227:680-685) and subsequent fluorography (Bonner and Laskey, 1974, Eur. J. Biochem. 46:84-88) (FIG. 3). […]

For `O=C(O)CCC(=O)O` [Succinate], the “transport activity, percentage of activity measured with malate-preloaded liposomes” value (shortened to “transport activity, percentage”) in test [1] is 63%; in test [2] it was 74 (±2) %; in test [3], 83 (±12) %.

In the case of `O=C(O)CCC(=O)C(=O)O` [2-Oxoglutarate], the results for the “transport activity, percentage” value in test [2] and in test [3] were 46 (±2) % and 44 (±14) %, respectively.

Take `N[C@@H](CC(=O)O)C(=O)O` [Aspartate]: the entries for the “transport activity, percentage” value in test [2] and in test [3] were 12 (±1) % and 13 (±4) %, respectively.

In the case of `N[C@@H](CCC(=O)O)C(=O)O` [Glutamate], the “transport activity, percentage” value is on record as 6 (±1) % in test [2] and 3 (±1) % in test [3].

As to `O=C(O)/C=C/C(=O)O` [Fumarate], the “transport activity, percentage” value in test [1] is listed as 65%; in test [2], 72 (±2) %; in test [3] it was 119 (±24) %.

Consider `N#CC(C#N)=NNc1cccc(Cl)c1` [CCCP], for which the “protein import into chloroplasts” value in test [4] is recorded as “the protein import is blocked”.

Turning to `O=C(O)CCCC(=O)O` [Glutarate], the “transport activity, percentage” value in test [2] is given as 52 (±1) %; in test [3], 63 (±14) %.

On to `O=C(O)CC(O)C(=O)O` (stereo not drawn) [Malate], for which the “transport activity, percentage” value in test [1], in test [2] and in test [3] was 100% in each case. Further, the 100% transport activity is 263 nMol/mg protein per minute in test [1] (malate-preloaded liposomes); 21.4 nMol/mg protein per minute in test [2] (malate-preloaded liposomes, envelope membranes); 0.8 nMol/mg protein per minute in test [3] (malate-preloaded liposomes, recombinant protein).

Values taken from patent US5981219A, “DNA molecules which code for a plastid 2-oxoglutarate/malate translocator” (Hoechst Schering Agrevo GmbH, priority 1919, dated 1999).
